Data taken from patent US20250290915A1, “METHOD FOR PREDICTING RESPONSIVENESS TO THERAPY” (CANCERTAIN LIMITED, priority 2022, published 2025).

Experiments:
Format in all cases: cell-based, human
[1] = tested on: Circulating Tumour Cells (CTCs) from a patient with colon cancer; assay: Drug response score assay on CTCs from blood, Example 2
Procedure: (§1) CD45^+ cells and circulating tumour cells (CTCs) were isolated from a blood sample provided by each subject.
(§2) CD45 separation was performed by adding human CD45 microbeads (50 μl/ml blood), incubating for 15 minutes at 4° C. and then processing using an AutoMACS machine. This separates the blood sample into CD45^+ and CD45^−cells in 2 separate falcons. The falcon tubes are then centrifuged at 1200 rpm for 5 minutes.
(§3) The supernatant was removed from the CD45^−falcon tube, and the CD45^−cells contacted with 100 μl of FcR block and 100 μl of CD326 (EpCAM) MicroBeads, followed by incubation at […] 4° C. for 30 minutes. The CD45^−cells were then processed using an AutoMACS machine to separate the EpCAM positive and negative cells into 2 separate falcon tubes. The EpCAM-cells were discarded. The supernatant was removed from the EpCAM^+ cells, and the cells resuspended in DMEM with 2 μl Cell Tox, 2 μl MT and 2 μl MT. 20 μl of the resuspended pellet was then added to all sample wells excluding a blank. After all wells are added to, a cell count was conducted on the […] to determine the number of circulating tumour cells (CTCs).
(§4) The different cell types were each divided equally into populations, depending on the number of drugs/concentrations to be tested and plated on a cell-culture plate pre-coated with a scaffold of polycaprolactone (PCL) electrospun fibres and incubated at 37° C., 5% CO2, for 5 to (typically 10) minutes to facilitate cell attachment. After attachment, an initial imaging step was carried out using the RealTime-Glo™ MT assay from Promega (Catalogue No. G9711)) and the CellTox™ Green Cytotoxicity Assay (Promega, Catalogue No. G8741), carried out according to manufacturer's instructions. Following this initial imagining, the immunotherapeutic and/or chemotherapeutic agents were added to the cell populations as indicated below. After 10 minutes, the imagining step was repeated. The cell populations were then incubated at 37° C., 5% CO2 for 48 hours. The imaging step was then repeated. The cell populations were then re-dosed with the same immunotherapeutic and/or chemotherapeutic agents as indicated below, and incubated at 37° C., 5% CO2 for a further 48 hours. After this second 48 hour incubation, the imagining step was repeated for a final time.
(§5) At the end of this culture period, dose response scores were calculated using a normalized drug response metric as described in Gupta et al. (Communications Biology volume 3, Article number: 42 (2020), https://doi.org/10.1038/s42003-020-0765-z). The start readout for a given immunotherapeutic or chemotherapeutic agent at a given concentration was the to readout for said immunotherapeutic or chemotherapeutic agent at a specified concentration. The end readout for a given immunotherapeutic or chemotherapeutic agent at a given concentration was the final timepoint reading (t96h) for said immunotherapeutic or chemotherapeutic agent at a specified concentration.
(§6) The positive control start readout for a given drug/concentration was the to readout for the corresponding drug at a specified concentration. The positive control end readout for the corresponding drug at a specified concentration was the final timepoint reading (t96h) for the corresponding blank well.
(§7) The negative control start and end readouts for a given immunotherapeutic or chemotherapeutic agent at a given concentration were the to and final timepoint reading (t96h) respectively for blank cell or blank immuno cell well respectively.
(§8) The sensitivity or resistance of a subject's cancer to a given immunotherapeutic or chemotherapeutic agent was determined based on the calculated drug response score as shown in Table 2.
Blood samples from a patient with colon cancer were received on 3 Mar. 2022 and tested using a 1 drug panel.

[2] = tested on: Circulating Tumour Cells (CTCs, EpCam+CD45−) from a patient with stage II synovial sarcoma; assay: Drug response score assay (RealTime-Glo MT / CellTox Green, PCL scaffold) on CTCs from blood, Example 1; parameters: key to Drug response score, conc. 1 / Drug response score, conc. 2 / Drug response score, conc. 3 / Drug response score, conc. 4: normalized drug response metric per Gupta et al. 2020
Procedure: as §1, §2, §3, §4, §5, §6, §7, §8
Blood samples from a patient with stage II synovial sarcoma (suspected spindle cell tumour) were received and tested using a 6 drug panel.
Chemotherapeutic agents were tested as in Table 3.

[3] = tested on: Circulating Tumour Cells (CTCs) from a patient with lung cancer (adenocarcinoma); assay: Drug response score assay on CTCs (with CD45+ cells for immunotherapy) from blood, Example 5; conditions: lung cancer CTCs
Procedure: as §1, §2
(§9) The supernatant was removed from the CD45^+falcon tube, and the cells resuspended in DMEM with 2 μl Cell Tox, 2 μl MT and 2 μl MT. 20 μl of the resuspended CD45^+ cells was then plated in each well which will contain an immunotherapy treatment.
as §3, §4, §5, §6, §7
(§10) The sensitivity or resistance of a subject's cancer to a given immunotherapeutic or chemotherapeutic agent was determined based on the calculated drug response score as shown in Table 2. […]

[4] = tested on: Circulating Tumour Cells (CTCs) from a patient with head and neck cancer (squamous cell carcinoma); assay: Drug response score assay on CTCs from blood, Example 6
Procedure: as §1, §2, §3, §4, §5, §6, §7, §8
Blood samples from a patient with head and neck cancer (squamous cell carcinoma) were received on 11 Mar. 2022 and tested using a 7 drug panel.

[5] = tested on: Circulating Tumour Cells (CTCs) from a patient with renal cancer; assay: Drug response score assay on CTCs (with CD45+ cells for immunotherapy) from blood, Example 7; parameters: key to Drug response score, conc. 1 / Drug response score, conc. 2 / Drug response score, conc. 3 / Drug response score, conc. 4: normalized drug response metric per Gupta et al. 2020
Procedure: as §1, §2, §9, §3, §4, §5, §6, §7, §10

N.N.[Cl][Pt][Cl] [Cisplatin]
Drug response score, conc. 1 ([1]; Cisplatin 2 μg/ml, CTCs, t96h): 2.719
Drug response score, conc. 2 ([1]; Cisplatin 4 μg/ml, CTCs, t96h): 2.874
Drug response score, conc. 3 ([1]; Cisplatin 10 μg/ml, CTCs, t96h): 3.012
Drug response score, conc. 4 ([1]; Cisplatin 20 μg/ml, CTCs, t96h): 3.259
effectiveness on Circulating Tumour Cells under laboratory conditions ([1]; colon cancer CTCs): not effective
Drug sensitivity as calculated by the assay (interpretation of Drug Response Scores) ([1]; colon cancer CTCs, Table 8): Resistant

Nc1ccn([C@@H]2O[C@H](CO)[C@@H](O)C2(F)F)c(=O)n1 [Gemcitabine]
Drug response score, conc. 1 ([2]; conc. 1: Doxo 10 ng/ml, Ifos 0.125 μg/ml, Gemcit 2 μg/ml, Doce 0.02 μg/ml, Carbo 2 μg/ml, Dacarb 1.5 μg/ml, CTCs, t96h, re-dosed at 48 h): 0.9382
Drug response score, conc. 2 ([2]; conc. 2: Doxo 30 ng/ml, Ifos 0.25 μg/ml, Gemcit 10 μg/ml, Doce 0.2 μg/ml, Carbo 5 μg/ml, Dacarb 3 μg/ml, CTCs, t96h): 0.4695
Drug response score, conc. 3 ([2]; conc. 3: Doxo 90 ng/ml, Ifos 5 μg/ml, Gemcit 20 μg/ml, Doce 2 μg/ml, Carbo 10 μg/ml, Dacarb 6 μg/ml, CTCs, t96h): 0.5149
Drug response score, conc. 4 ([2]; conc. 4: Doxo 270 ng/ml, Ifos 10 μg/ml, Gemcit 40 μg/ml, Doce 10 μg/ml, Carbo 20 μg/ml, Dacarb 12 μg/ml, CTCs, t96h): 0.4075
Drug sensitivity as calculated by the assay (interpretation of Drug Response Scores) ([2]; synovial sarcoma CTCs, Table 5): Sensitive (S+)
effectiveness on Circulating Tumour Cells (CTCs) under laboratory conditions [3]: marginally more effective than other agents
Drug sensitivity as calculated by the assay (interpretation of Drug Response Scores) ([3]; Table 17): S++
Drug response score, conc. 1 ([4]; conc. 1: Ifos 0.125 μg/ml, Gemcit 2 μg/ml, Doxo 10 ng/ml, Etop 1 μg/ml, Metho 0.5 μg/ml, Capecit 200 μg/ml, Vinor 20 μg/ml, CTCs, t96h): 0.9091
Drug response score, conc. 2 ([4]; conc. 2: Ifos 0.25 μg/ml, Gemcit 10 μg/ml, Doxo 30 ng/ml, Etop 4 μg/ml, Metho 1 μg/ml, Capecit 300 μg/ml, Vinor 40 μg/ml, CTCs, t96h): 0.8443
Drug response score, conc. 3 ([4]; conc. 3: Ifos 5 μg/ml, Gemcit 20 μg/ml, Doxo 90 ng/ml, Etop 20 μg/ml, Metho 2 μg/ml, Capecit 400 μg/ml, Vinor 80 μg/ml, CTCs, t96h): 0.6925
Drug response score, conc. 4 ([4]; conc. 4: Ifos 10 μg/ml, Gemcit 40 μg/ml, Doxo 270 ng/ml, Etop 100 μg/ml, Metho 4 μg/ml, Capecit 600 μg/ml, Vinor 200 μg/ml, CTCs, t96h): 0.3157
effectiveness on Circulating Tumour Cells under laboratory conditions ([4]; head and neck cancer CTCs): Sensitive S+
Drug sensitivity as calculated by the assay (interpretation of Drug Response Scores) ([4]; head and neck cancer CTCs, Table 20): Sensitive (S+)
Drug response score, conc. 1 ([5]; conc. 1: Pembr 20 μg/ml (CTCs + CD45+ cells), Docetax 0.02 μg/ml, Gemcit 2 μg/ml, Topo 5 μg/ml, Etop 1 μg/ml, Eribul 5 μg/ml (CTCs), t96h): −0.1637
Drug response score, conc. 2 ([5]; conc. 2: Pembr 40 μg/ml (CTCs + CD45+ cells), Docetax 0.2 μg/ml, Gemcit 10 μg/ml, Topo 10 μg/ml, Etop 4 μg/ml, Eribul 10 μg/ml (CTCs), t96h): 0.0725
Drug response score, conc. 3 ([5]; conc. 3: Pembr 100 μg/ml (CTCs + CD45+ cells), Docetax 2 μg/ml, Gemcit 20 μg/ml, Topo 50 μg/ml, Etop 20 μg/ml, Eribul 20 μg/ml (CTCs), t96h): −0.3154
Drug response score, conc. 4 ([5]; conc. 4: Pembr 160 μg/ml (CTCs + CD45+ cells), Docetax 10 μg/ml, Gemcit 40 μg/ml, Topo 100 μg/ml, Etop 100 μg/ml, Eribul 40 μg/ml (CTCs), t96h): −0.0871
effectiveness on Circulating Tumour Cells under laboratory conditions ([5]; renal cancer CTCs): Sensitive S++
Drug sensitivity as calculated by the assay (interpretation of Drug Response Scores) ([5]; renal cancer CTCs, Table 23): Sensitive (S++)
